What was measured:
rape = assay: Test B pre/postemergence rape; type: in vivo, Brassica napus
How it was run: (§1)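 Response is a visual 0-to-10 score relative to untreated plants, where 0 means no effect and 10 means complete control, taken twelve to sixteen days after application. Treatments went onto soil at planting and onto foliage of 1- to 4-leaf plants, using a surfactant-containing non-phytotoxic solvent.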

bamyardgrass = assay: Test B flood test barnyardgrass; type: in vivo, Echinochloa crus-galli
How it was run: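 Plants were grown to the 2-leaf stage before treatment with test chemical, then held in a greenhouse for twelve to sixteen days. Injury was visually rated against untreated controls on a 0–10 scale, where 0 is no effect and 10 is complete control.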

Spanishneedles = assay: Test D Spanishneedles; type: in vivo, Bidens bipinnata; conditions: Preemergence, 0 to 100 scale
Description: (§2) Seeds, tubers, or plant parts of Alexandergrass (Brachiaria plantaginea), bermuda-grass (Cynodon dactylon), common pursiane (Portulaca oleracea), common ragweed (Ambrosia elatior), common groundsel (Senecio vulgaris), dallisgrass (Paspalum dilatatum), goosegrass (Eleusine indica), guineagrass (Panicum maximum), itchgrass (Rottboellia exaltata), Johnson grass (Sorghum halepense), large crabgrass (Digitaria sanguinalis), pitted morningglory (Ipomoea lacunosa), purple nutsedge (Cyperus rotundus), sandbur (Cenchrus echinatus), sourgrass (Trichachne insularis), Spanishneedles (Bidens bipinnata), surinam grass (Brachiaria decumbens) and tall mallow (Malva sylvestris) were planted into greenhouse pots of flats containing greenhouse planting medium. Plant species were grown in separate pots or individual compartments. Preemergence applications were made within one day of planting the seed or plant part.
(§3) Test chemicals were formulated in a non-phytotoxic solvent mixture which included a surfactant and applied preemergence to the surface of the pot containing seeds in a sandy loam soil. Untreated control pots and treated pots were placed in the greenhouse for growth and visually evaluated for injury 14 to 21 days after herbicide application. Plant response ratings, summarized in Table C, are based on a 0 to 100 scale where 0 is no injury and 100 is complete control. A dash (−) response means no test result.

wheat = assay: Test B pre/postemergence wheat; type: in vivo, Triticum aestivum
How it was run: as §1

velvetleaf = assay: Test B pre/postemergence velvetleaf; type: in vivo, Abutilon theophrasti
How it was run: as §1

sandbur = assay: Test D sandbur; type: in vivo, Cenchrus echinatus; conditions: Preemergence, 0 to 100 scale
Description: as §2, §3

green foxtail = assay: Test E green foxtail; type: in vivo, Setaria viridis; conditions: Preemergence
winter wheat [1] = assay: Test E winter wheat; type: in vivo, Triticum aestivum; conditions: Postemergence; for Plant response rating, Wheat (winter): 0 to 100 scale, 0 is no effect, 100 is complete control
How it was run: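 Postemergence: spray at 1–4 leaf stage, soil 60:40 sandy loam:potting mix; solvent + surfactant formulation; greenhouse 21–28 d; visual injury vs untreated controls.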

Italian ryegrass = assay: Test E Italian ryegrass; type: in vivo, Lolium multiflorum; conditions: Preemergence
winter wheat [2] = assay: Test E winter wheat; type: in vivo, Triticum aestivum; conditions: Preemergence
blackgrass = assay: Test E blackgrass; type: in vivo, Alopecurus myosuroides; conditions: Preemergence
wild oat = assay: Test E wild oat; type: in vivo, Avena fatua; conditions: Preemergence
winter barley = assay: Test E winter barley; type: in vivo, Hordeum vulgare; conditions: Preemergence
[3] = Postemergence, Rate 62 g/ha, scale 0 to 10, 0 is no effect, 10 is complete control
[4] = Postemergence, Rate 250 g/ha, scale 0 to 10, 0 no effect, 10 complete control
[5] = Preemergence, Rate 62 g/ha, scale 0 to 10 (0 no effect, 10 complete control)
[6] = Preemergence, Rate 125 g/ha, scale 0 to 10 (0 no effect, 10 complete control)
[7] = Preemergence, Rate 250 g/ha, scale of 0 to 10 where 0 is no effect and 10 is complete control
[8] = Preemergence, Rate 500 g/ha, scale 0 (no effect) to 10 (complete control)
[9] = Rate 125 g/ha, Postemergence, scale 0 to 10, 0 no effect, 10 complete control
[10] = Rate 500 g/ha, Postemergence, scale 0 to 10, 0 no effect, 10 complete control
[11] = Rate 16 g/ha, 0 no injury, 100 complete control
[12] = Rate 32 g/ha, 0 no injury, 100 complete control
[13] = Rate 64 g/ha, 0 no injury, 100 complete control
[14] = Rate 125 g/ha, 0 no injury, 100 complete control
[15] = Rate 125 g/ha, 0 to 100 scale (0 no effect, 100 complete control)
[16] = Postemergence, Rate 31 g/ha, visual rating, scale 0 to 10 (0 no effect, 10 complete control)
[17] = Preemergence, Rate 31 g/ha, visual rating, scale 0 to 10 (0 no effect, 10 complete control)
[18] = Preemergence, Rate 62 g/ha, scale of 0 to 10 where 0 is no effect and 10 is complete control
[19] = Rate 62 g/ha, Postemergence, scale 0 to 10 (0 no effect, 10 complete control)
[20] = Rate 125 g/ha, Postemergence, scale of 0 to 10 where 0 is no effect and 10 is complete control
[21] = Rate 125 g/ha, Preemergence, scale of 0 to 10 where 0 is no effect and 10 is complete control
[22] = Rate 250 g/ha, Postemergence, scale of 0 to 10 where 0 is no effect and 10 is complete control
[23] = Rate 62 g/ha, headed Pre-emergence (flood test species), scale 0 to 10 (0 no effect, 10 complete control)
[24] = Rate 125 g/ha, Pre-emergence, flood test species, scale 0 to 10 where 0 is no effect and 10 is complete control
[25] = Rate 250 g/ha, Pre-emergence, flood-test species, scale 0 to 10, 0 is no effect, 10 is complete control
[26] = Preemergence, Rate 500 g/ha, scale of 0 to 10 where 0 is no effect and 10 is complete control

CC(C)N(C(=O)n1oc(=O)n(Cc2ccccc2)c1=O)c1ccc(F)cc1 [Compound 78]
Rape plant response rating (rape; [3]): 0
Rape plant response rating (rape; [4]): 2
Rape plant response rating (rape; [5]): 0
Plant response rating, Rape (rape; [6]): 0
Plant response rating, Rape (rape; [7]): 5
Rape plant response rating (rape; [8]): 5
Rape plant response rating (rape; [9]): 0
Rape plant response rating (rape; [10]): 4
Barnyardgrass plant response rating (bamyardgrass; [3]): 0
Barnyardgrass plant response rating (bamyardgrass; Rate 125 g/ha, Postemergence section (flood test species), scale 0 to 10, 0 no effect, 10 complete control): 0
Barnyardgrass plant response rating (bamyardgrass; Rate 250 g/ha, headed Pre-emergence (flood test species), scale 0 to 10 (0 no effect, 10 complete control)): 0
Plant response rating, Barnyardgrass (bamyardgrass; Rate 500 g/ha, headed Pre-emergence (flood test species), scale 0 to 10 (0 no effect, 10 complete control)): 0
Barnyardgrass plant response rating (bamyardgrass; Rate 500 g/ha, listed under Postemergence (flood test species), scale 0 to 10, 0 no effect, 10 complete control): 7
Barnyardgrass plant response rating (bamyardgrass; Rate 1000 g/ha, Pre-emergence (as headed), scale 0 to 10): 0
Barnyardgrass plant response rating (bamyardgrass; Rate 2000 g/ha, Pre-emergence (as headed), scale 0 to 10, 0 no effect, 10 complete control): 3
Barnyardgrass plant response rating (bamyardgrass; flood test, listed under Postemergence, Rate 250 g/ha, scale 0 to 10, 0 no effect, 10 complete control): 3
Plant response rating, Spanishneedles (Spanishneedles; [11]): 0
Plant response rating, Spanishneedles (Spanishneedles; [12]): 0
Spanishneedles plant response rating (Spanishneedles; [13]): 0
Spanishneedles plant response rating (Spanishneedles; [14]): 0
Plant response rating, Spanishneedles (Spanishneedles; Rate 500 g/ha): 0
Wheat plant response rating (wheat; [3]): 0
Wheat plant response rating (wheat; [4]): 0
Wheat plant response rating (wheat; [5]): 0
Plant response rating, Wheat (wheat; [6]): 0
Plant response rating, Wheat (wheat; [7]): 3
Wheat plant response rating (wheat; [8]): 3
Wheat plant response rating (wheat; [9]): 0
Wheat plant response rating (wheat; [10]): 0
Velvetleaf plant response rating (velvetleaf; [3]): 2
Velvetleaf plant response rating (velvetleaf; [4]): 3
Velvetleaf plant response rating (velvetleaf; [5]): 0
Plant response rating, Velvetleaf (velvetleaf; [6]): 0
Plant response rating, Velvetleaf (velvetleaf; [7]): 2
Velvetleaf plant response rating (velvetleaf; [8]): 7
Velvetleaf plant response rating (velvetleaf; [9]): 2
Velvetleaf plant response rating (velvetleaf; [10]): 4
Plant response rating, Sandbur (sandbur; [11]): 0
Plant response rating, Sandbur (sandbur; [12]): 0
Sandbur plant response rating (sandbur; [13]): 0
Sandbur plant response rating (sandbur; [14]): 0
Plant response rating, Sandbur (sandbur; Rate 250 g/ha): 75
Plant response rating, Sandbur (sandbur; Rate 500 g/ha): 80

CCOCn1c(=O)on(C(=O)N(c2ccc(F)cc2)C(C)C)c1=O [Compound 295]
Plant response rating, Green foxtail (green foxtail; [15]): 50
Green foxtail plant response rating (0 to 100 scale) (green foxtail; Rate 250 g/ha): 100
Plant response rating, Wheat (winter) (winter wheat [1]; Rate 125 g/ha): 30
Wheat (winter) plant response rating (winter wheat [1]; Rate 250 g/ha, 0 to 100 scale where 0 is no effect and 100 is complete control): 50
Plant response rating, I. Ryegrass (Italian ryegrass; [15]): 40
I. Ryegrass plant response rating (0 to 100 scale) (Italian ryegrass; Rate 250 g/ha): 50
Rape plant response rating (rape; [16]): 0
Rape plant response rating (rape; [17]): 0
Rape plant response rating (rape; [18]): 0
Rape plant response rating (rape; [7]): 10
Rape plant response rating (rape; [19]): 0
Rape plant response rating (rape; [20]): 0
Rape plant response rating (rape; [21]): 2
Plant response rating, Rape (rape; [22]): 3
Plant response rating, Wheat (winter) (winter wheat [2]; [15]): 40
Wheat (winter) plant response rating (0 to 100 scale) (winter wheat [2]; Rate 250 g/ha): 60
Plant response rating, Blackgrass (blackgrass; [15]): 0
Blackgrass plant response rating (0 to 100 scale) (blackgrass; Rate 250 g/ha): 10
Barnyardgrass plant response rating (bamyardgrass; Rate 31 g/ha, Pre-emergence section (flood test species), scale 0 to 10): 0
Barnyardgrass plant response rating (bamyardgrass; [23]): 0
Barnyardgrass plant response rating (bamyardgrass; [24]): 0
Barnyardgrass plant response rating (bamyardgrass; [25]): 0
Plant response rating, Wild oat (wild oat; [15]): 0
Wild oat plant response rating (0 to 100 scale) (wild oat; Rate 250 g/ha): 10
Plant response rating, Barley (winter) (winter barley; [15]): 20
Barley (winter) plant response rating (0 to 100 scale) (winter barley; Rate 250 g/ha): 30
Wheat plant response rating (wheat; [16]): 0
Wheat plant response rating (wheat; [17]): 0
Wheat plant response rating (wheat; [18]): 0
Wheat plant response rating (wheat; [7]): 6
Wheat plant response rating (wheat; [19]): 0
Wheat plant response rating (wheat; [20]): 0
Wheat plant response rating (wheat; [21]): 3
Plant response rating, Wheat (wheat; [22]): 3
Velvetleaf plant response rating (velvetleaf; [16]): 0
Velvetleaf plant response rating (velvetleaf; [17]): 0
Velvetleaf plant response rating (velvetleaf; [18]): 0
Velvetleaf plant response rating (velvetleaf; [7]): 3
Velvetleaf plant response rating (velvetleaf; [19]): 0
Velvetleaf plant response rating (velvetleaf; [20]): 0
Velvetleaf plant response rating (velvetleaf; [21]): 0
Plant response rating, Velvetleaf (velvetleaf; [22]): 5

CSCCn1c(=O)on(C(=O)N(c2ccc(F)cc2)C(C)C)c1=O [Compound 314]
Plant response rating, Green foxtail (green foxtail; [15]): 60
Plant response rating, Green foxtail (green foxtail; Rate 250 g/ha, 0 to 100 scale): 85
Plant response rating, Wheat (winter) (winter wheat [1]; Rate 125 g/ha): 65
Plant response rating, Wheat (winter) (winter wheat [1]; Rate 250 g/ha): 70
Plant response rating, I. Ryegrass (Italian ryegrass; [15]): 50
Plant response rating, I. Ryegrass (Italian ryegrass; Rate 250 g/ha, 0 to 100 scale): 55
Rape plant response rating (rape; [18]): 0
Rape plant response rating (rape; [7]): 3
Rape plant response rating (rape; [26]): 7
Rape plant response rating (rape; [19]): 0
Rape plant response rating (rape; [20]): 0
Plant response rating, Rape (rape; [22]): 0
Plant response rating, Wheat (winter) (winter wheat [2]; [15]): 65
Plant response rating, Wheat (winter) (winter wheat [2]; Rate 250 g/ha, 0 to 100 scale): 70
Plant response rating, Blackgrass (blackgrass; [15]): 40
Plant response rating, Blackgrass (blackgrass; Rate 250 g/ha, 0 to 100 scale): 50
Barnyardgrass plant response rating (bamyardgrass; [23]): 0
Barnyardgrass plant response rating (bamyardgrass; [24]): 0
Barnyardgrass plant response rating (bamyardgrass; [25]): 0
Barnyardgrass plant response rating (bamyardgrass; Rate 500 g/ha, Pre-emergence, flood test species, scale 0 to 10 (0 no effect, 10 complete control)): 0
Plant response rating, Wild oat (wild oat; [15]): 70
Plant response rating, Wild oat (wild oat; Rate 250 g/ha, 0 to 100 scale): 70
Plant response rating, Barley (winter) (winter barley; [15]): 50
Plant response rating, Barley (winter) (winter barley; Rate 250 g/ha, 0 to 100 scale, 0 no effect, 100 complete control): 60
Wheat plant response rating (wheat; [18]): 0
Wheat plant response rating (0 to 10 scale) (wheat; Preemergence, Rate 125 g/ha): 0
Wheat plant response rating (wheat; [7]): 0
Wheat plant response rating (wheat; [26]): 3
Wheat plant response rating (wheat; [19]): 0
Wheat plant response rating (wheat; [20]): 0
Plant response rating, Wheat (wheat; [22]): 3
Velvetleaf plant response rating (velvetleaf; [18]): 0
Velvetleaf plant response rating (0 to 10 scale) (velvetleaf; Preemergence, Rate 125 g/ha): 0
Velvetleaf plant response rating (velvetleaf; [7]): 3
Velvetleaf plant response rating (velvetleaf; [26]): 5
Velvetleaf plant response rating (velvetleaf; [19]): 0
Velvetleaf plant response rating (velvetleaf; [20]): 0
Plant response rating, Velvetleaf (velvetleaf; [22]): 0
